Laboratory results from patent US20220280572A1, “METHODS OF TREATING VASCULAR DISEASES” (Astellas Institute for Regenerative Medicine, priority 2019, published 2022).

Tested on: lung microvasculature
Assay: Micro CT scanning of lungs from the SuHx model
Type: in vivo, rat
Conditions: SuHx rats; sildenafil treatment
Procedure: Endothelial progenitor cells are reported to preserve microvasculature in MCT treated lung (Zhao et al. Cir. Res. 96:442-450 (2005)). Therefore, micro CT scanning was performed on the lungs from the SuHx model treated with Nx control, vehicle, sildenafil, and 1 million and 5 million GMP1-HE cells.

## CCCc1nn(C)c2c(=O)[nH]c(-c3cc(S(=O)(=O)N4CCN(C)CC4)ccc3OCC)nc12 [sildenafil]
  capillary perfusion (microCT): modest improvement
